In brackets after ≈: the same amount, converted by molar mass.
How the values were obtained:
Assay in all cases: ≥ marks a high value that may be exact or a test limit, other limits are often not marked, values filed in µg/mL are converted to µM
[1] = tested on: Escherichia coli KCTC 1682
[2] = tested on: Bacillus subtilis KCTC 3068
[3] = tested on: Staphylococcus aureus KCTC 1621
[4] = tested on: Staphylococcus epidermidis KCTC 1917
[5] = tested on: Pseudomonas aeruginosa KCTC 1637
[6] = tested on: Salmonella typhimurium KCTC 1926
[7] = tested on: Enterococcus faecalis ATCC 29212
[8] = tested on: Pseudomonas aeruginosa ATCC 27853
[9] = tested on: Staphylococcus epidermidis C621
[10] = tested on: Escherichia coli ATCC 25922
[11] = tested on: Bacillus subtilis ATCC 6633
Escherichia coli UB1005 = tested on: Escherichia coli UB1005
[12] = tested on: Staphylococcus aureus ATCC 25923
[13] = tested on: Pseudomonas aeruginosa CMCCB 10104
[14] = tested on: Candida albicans ATCC 2002
[15] = tested on: Escherichia coli ATCC 25726

| MIC [10] [µM] | MIC [12] [µM] | MIC [13] [µM] | MIC [14] [µM] | also measured | Structure (SMILES) |
| --- | --- | --- | --- | --- | --- |
|  |  |  |  | MIC [1]: 2 µM (≈ 4.6 µg/mL); MIC [2]: 2 µM (≈ 4.6 µg/mL); MIC [3]: 2 µM (≈ 4.6 µg/mL); MIC [4]: 1 µM (≈ 2.3 µg/mL); MIC [5]: 1 µM (≈ 2.3 µg/mL); MIC [6]: 1 µM (≈ 2.3 µg/mL) | CC[C@H](C)[C@H](NC(=O)[C@H](CCCCN)NC(=O)[C@H](CCCCN)NC(=O)[C@H](Cc1ccccc1)NC(=O)[C@H](CC(C)C)NC(=O)[C@H](CCCCN)NC(=O)[C@H](C)NC(=O)[C@@H](N)CCCCN)C(=O)N1CCC[C@H]1C(=O)N[C@@H](CCCCN)C(=O)N[C@@H](Cc1ccccc1)C(=O)N[C@@H](CC(C)C)C(=O)N[C@@H](Cc1cnc[nH]1)C(=O)N[C@@H](CC(C)C)C(=O)N[C@@H](Cc1c[nH]c2ccccc12)C(=O)N[C@@H](CCCCN)C(=O)N[C@@H](CCCCN)C(=O)N[C@@H](Cc1ccccc1)C(N)=O [KAKLFKKIPKFLHLWKKF] |
| 16 (≈ 28.7 µg/mL) | > 32 |  |  | MIC [7]: > 32 µM; MIC [8]: 16 µM (≈ 28.7 µg/mL); MIC [9]: 8 µM (≈ 14.4 µg/mL); MIC [11]: 16 µM (≈ 28.7 µg/mL); MIC (Escherichia coli UB1005): 2 µM (≈ 3.59 µg/mL) | C[C@H](NC(=O)[C@H](C)NC(=O)[C@H](Cc1ccccc1)NC(=O)[C@H](C)NC(=O)[C@H](C)NC(=O)[C@H](Cc1ccccc1)NC(=O)[C@H](C)NC(=O)[C@H](C)NC(=O)[C@H](Cc1ccccc1)NC(=O)[C@H](C)NC(=O)[C@H](C)NC(=O)[C@H](CCCCN)NC(=O)[C@H](CCCCN)NC(=O)[C@H](CCCCN)NC(=O)[C@H](CCCCN)NC(=O)[C@H](CCCCN)NC(=O)[C@@H](N)CCCCN)C(N)=O [KKKKKKAAFAAFAAFAA] |
|  |  |  |  | MIC [1]: 14.9 µM (≈ 25 µg/mL); MIC [2]: 7.44 µM (≈ 12.5 µg/mL); MIC [3]: 7.44 µM (≈ 12.5 µg/mL); MIC [4]: 3.72 µM (≈ 6.25 µg/mL); MIC [5]: 3.72 µM (≈ 6.25 µg/mL); MIC [6]: 1.86 µM (≈ 3.13 µg/mL) | CC[C@H](C)[C@H](NC(=O)[C@H](CCCN=C(N)N)NC(=O)[C@H](CC(C)C)NC(=O)[C@H](CC(C)C)NC(=O)[C@@H](N)CCCN=C(N)N)C(=O)N[C@@H](Cc1c[nH]c2ccccc12)C(=O)N[C@@H](Cc1c[nH]c2ccccc12)C(=O)N[C@H](C(=O)N[C@@H](CCCN=C(N)N)C(=O)N[C@H](C(=O)N[C@@H](CC(C)C)C(=O)N[C@@H](CCCN=C(N)N)C(N)=O)C(C)C)[C@@H](C)CC [RLLRIWWIRVLR] |
| 1.13 (≈ 5.5 µg/mL) | 2.27 (≈ 11 µg/mL) | 2.27 (≈ 11 µg/mL) | 2.27 (≈ 11 µg/mL) |  | CC[C@H](C)[C@H](NC(=O)CN)C(=O)N[C@@H](Cc1ccccc1)C(=O)N[C@@H](CO)C(=O)N[C@@H](CCCCN)C(=O)N[C@H](C(=O)N[C@@H](CO)C(=O)NCC(=O)N[C@@H](CCCCN)C(=O)N[C@@H](C)C(=O)N[C@H](C(=O)N[C@@H](CCCCN)C(=O)N[C@@H](CC(N)=O)C(=O)N[C@@H](CC(C)C)C(=O)N[C@@H](Cc1ccccc1)C(=O)N[C@H](C(=O)N[C@@H](CCCCN)C(=O)NCC(=O)N[C@@H](C)C(=O)N[C@@H](CCCCN)C(=O)N[C@@H](CC(N)=O)C(=O)N[C@H](C(=O)NCC(=O)N[C@@H](CCCCN)C(=O)N[C@@H](CCCN=C(N)N)C(=O)N[C@H](C(=O)NCC(=O)N[C@@H](CCSC)C(=O)N[C@@H](CC(=O)O)C(=O)N[C@H](C(=O)N[C@H](C(=O)N[C@@H](CCCN=C(N)N)C(=O)N[C@H](C(=O)NCC(=O)N[C@@H](CCSC)C(=O)N[C@@H](CC(=O)O)C(=O)N[C@H](C(=O)N[C@H](C(=O)NCC(=O)N[C@H]1CSSC[C@@H](C(=O)O)NC(=O)[C@H](CCC(=O)O)NC(=O)CNC(=O)[C@H](CCCCN)NC(=O)[C@H]([C@@H](C)CC)NC(=O)[C@H](CCCCN)NC1=O)C(C)C)C(C)C)[C@@H](C)O)C(C)C)C(C)C)C(C)C)C(C)C)[C@@H](C)CC)[C@@H](C)CC)[C@@H](C)CC [GIFSKISGKAIKNLFIKGAKNVGKRVGMDVVRTGMDVVGCKIKGEC] |
| 3.05 (≈ 6.19 µg/mL) | 3.05 (≈ 6.19 µg/mL) | 6.1 (≈ 12.4 µg/mL) | 1.53 (≈ 3.1 µg/mL) |  | CC[C@H](C)[C@H](NC(=O)CN)C(=O)N[C@@H](CC(C)C)C(=O)NCC(=O)N[C@@H](CC(N)=O)C(=O)N[C@H](C(=O)N[C@H](C(=O)NCC(=O)N[C@@H](CCSC)C(=O)NCC(=O)N[C@@H](CCCCN)C(=O)N[C@@H](CCCCN)C(=O)N[C@H](C(=O)N[C@H](C(=O)N[C@H]1CSSC[C@@H](C(=O)O)NC(=O)[C@H](CC(C)C)NC(=O)CNC(=O)[C@H](CO)NC(=O)[C@H](CC(C)C)NC(=O)CNC1=O)C(C)C)[C@@H](C)CC)C(C)C)[C@@H](C)CC [GILGNIVGMGKKIVCGLSGLC] |
| 4.32 (≈ 8.59 µg/mL) | 4.32 (≈ 8.59 µg/mL) | 8.64 (≈ 17.2 µg/mL) | 4.32 (≈ 8.59 µg/mL) |  | CC[C@H](C)[C@H](NC(=O)CNC(=O)[C@H](CO)NC(=O)[C@H](CC(C)C)NC(=O)[C@@H](NC(=O)CN)[C@@H](C)CC)C(=O)N[C@@H](CC(C)C)C(=O)NCC(=O)N[C@H](C(=O)NCC(=O)N[C@@H](CCCCN)C(=O)N[C@@H](CCSC)C(=O)N[C@@H](CC(C)C)C(=O)N[C@H](C(=O)N[C@H]1CSSC[C@@H](C(=O)O)NC(=O)[C@H](CC(C)C)NC(=O)CNC(=O)[C@H](CO)NC(=O)[C@H](CC(C)C)NC(=O)CNC1=O)C(C)C)C(C)C [GILSGILGVGKMLVCGLSGLC] |
|  | 50 (≈ 68.4 µg/mL) |  |  | MIC [15]: ≥ 100 µM | CC[C@H](C)[C@H](NC(=O)[C@@H]1CCCN1C(=O)[C@H](CC(C)C)NC(=O)[C@@H](N)Cc1ccccc1)C(=O)N[C@@H](CC(C)C)C(=O)NCC(=O)N[C@@H](CC(N)=O)C(=O)N[C@@H](CC(C)C)C(=O)N[C@@H](CC(C)C)C(=O)N[C@@H](CO)C(=O)NCC(=O)N[C@@H](CC(C)C)C(=O)N[C@@H](CC(C)C)C(N)=O [FLPILGNLLSGLL] |
| 3.35 (≈ 8.59 µg/mL) | 3.35 (≈ 8.59 µg/mL) | 3.35 (≈ 8.59 µg/mL) | 3.35 (≈ 8.59 µg/mL) |  | CC[C@H](C)[C@H](N)C(=O)N[C@@H](CC(N)=O)C(=O)N1CCC[C@H]1C(=O)N[C@@H](Cc1ccccc1)C(=O)N[C@H](C(=O)N[C@@H](C)C(=O)NCC(=O)N[C@H](C(=O)N[C@@H](C)C(=O)N[C@@H](C)C(=O)N[C@@H](CCC(=O)O)C(=O)N[C@@H](CCSC)C(=O)N[C@@H](CCSC)C(=O)N[C@@H](CCC(N)=O)C(=O)N[C@@H](Cc1cnc[nH]1)C(=O)N[C@H](C(=O)N[C@@H](Cc1ccc(O)cc1)C(=O)N[C@H]1CSSC[C@@H](C(=O)O)NC(=O)[C@H](CCCCN)NC(=O)[C@H](CCCCN)NC(=O)[C@H](CO)NC(=O)[C@H](C)NC(=O)[C@H](C)NC1=O)C(C)C)C(C)C)C(C)C [INPFVAGVAAEMMQHVYCAASKKC] |
|  | > 100 |  |  | MIC [15]: ≥ 50 µM | CC[C@H](C)[C@H](NC(=O)[C@H](CCC(=O)O)NC(=O)[C@H](CO)NC(=O)[C@@H](NC(=O)[C@H](CC(C)C)NC(=O)[C@H](C)NC(=O)[C@H](CCC(N)=O)NC(=O)CNC(=O)[C@H](Cc1ccccc1)NC(=O)[C@H](CCCCN)NC(=O)[C@H](CCCCN)NC(=O)[C@H](C)NC(=O)[C@H](CO)NC(=O)[C@H](Cc1cnc[nH]1)NC(=O)[C@H](CC(C)C)NC(=O)[C@H](Cc1ccccc1)NC(=O)[C@H](CCCCN)NC(=O)CNC(=O)[C@@H](NC(=O)CN)C(C)C)C(C)C)C(=O)N[C@@H](CCSC)C(=O)N[C@@H](CCCCN)C(=O)N[C@@H](CO)C(=O)O [GVGKFLHSAKKFGQALVSEIMKS] |
| > 126 | > 126 | ≥ 126 | ≥ 126 |  | CC(C)[C@H](N)C(=O)N[C@H](C(=O)N[C@@H](CCCCN)C(=O)N[C@@H](CS)C(=O)N[C@@H](CO)C(=O)N[C@@H](Cc1ccc(O)cc1)C(=O)N[C@@H](CCCN=C(N)N)C(=O)N[C@@H](CCC(N)=O)C(=O)NCC(=O)N[C@@H](CO)C(=O)N1CCC[C@H]1C(=O)N[C@@H](CC(=O)O)C(=O)N[C@@H](CO)C(=O)N[C@@H](CCCN=C(N)N)C(=O)O)C(C)C [VVKCSYRQGSPDSR] |
| 0.924 (≈ 3.6 µg/mL) | 0.924 (≈ 3.6 µg/mL) | 0.924 (≈ 3.6 µg/mL) | 0.924 (≈ 3.6 µg/mL) |  | CC[C@H](C)[C@H](NC(=O)[C@H](CC(C)C)NC(=O)[C@H](CCC(N)=O)NC(=O)[C@@H](NC(=O)[C@H](C)NC(=O)CNC(=O)[C@H](CCCCN)NC(=O)[C@@H](NC(=O)[C@H](CC(C)C)NC(=O)[C@@H](NC(=O)[C@H](Cc1ccccc1)NC(=O)[C@@H](NC(=O)CN)C(C)C)[C@@H](C)O)[C@@H](C)CC)[C@@H](C)O)C(=O)NCC(=O)N[C@@H](CCCCN)C(=O)N[C@H](C(=O)N[C@@H](CC(C)C)C(=O)NCC(=O)N[C@@H](CCCCN)C(=O)N[C@@H](CCC(=O)O)C(=O)N[C@@H](CC(C)C)C(=O)NCC(=O)N[C@@H](CCCCN)C(=O)N[C@H](C(=O)NCC(=O)N[C@@H](CC(C)C)C(=O)N[C@@H](CCC(=O)O)C(=O)N[C@@H](CC(C)C)C(=O)N[C@@H](CCSC)C(=O)N[C@@H](C)C(=O)N[C@H]1CSSC[C@@H](C(=O)O)NC(=O)[C@H](CCC(N)=O)NC(=O)[C@H](CCC(=O)O)NC(=O)[C@H]([C@@H](C)O)NC(=O)[C@H]([C@@H](C)CC)NC(=O)[C@H](CCCCN)NC1=O)[C@@H](C)O)[C@@H](C)O [GVFTLIKGATQLIGKTLGKELGKTGLELMACKITEQC] |
